Source: US20250281480A1, “PHARMACEUTICAL DRY POWDER INHALATION FORMULATION” (Bayer Aktiengesellschaft, priority 2021, published 2025)

Assays:
cGMP = test: Phase I, healthy male subjects, inhaled once daily for 7 days: cGMP in blood samples; format: in vivo, human
Description: (§1) Healthy White male subjects, aged 18 to 45 years and with a body mass index (BMI) above/equal 18.5 and below/equal 29.9 kg/m2 were treated in a clinical pharmacological phase I study on seven days with inhaled once daily doses of 480 or 1000 or 2000 μg (2 capsules of 1000 μg) (nominal dose) of dry powder formulations of example 2 or Placebo. The subjects inhaled the drug powder from capsules (see under C, e.g. tables 22 and 23) inserted into a handheld inhalation device by one deep inhalative breath. The dry powder formulation of the drug is dispersed into the airstream and fine particles are transported into the deep parts of the lung where it is intended to cause a vasodilation of the blood vessels in PH patients for a substantial reduction of increased blood pressure in the central pulmonary blood vessels in PAH patients or other subtypes of PH. This effect cannot be shown in subjects with healthy lungs. In addition inhaled drug causes a dilation of the bronchial airways and thus also improves disease states of lung diseases in PH patients with pathological bronchoconstriction. This effect was measured via bodyplethysmography as reduction of Specific Airway Resistance in healthy subjects. After the deep inhalative breath the subjects hold breath for 2 seconds, so that the dry powder drug condenses from the airstream onto the surface of the deeper lung areas where it is deposited close to its site of intended pharmacological action. The drug dissolutes over the day and equilibrates the lung via lining fluid.
Drug activity in healthy men was controlled in the healthy subjects by analysing blood samples for cGMP, the immediate product of sGC pharmacological activation prior after the first and after the last drug inhalation of the 7 days treatment in comparison to measurements on the pretreatment day for all doses.

[1] = Micronization of monohydrate II and monohydrate I (spiral jet mill): solid form after micronization; format: physicochemical
Excerpt: Generally no amorphization even partial nor form conversion should happen during the necessary micronization step.
The corresponding batches (examples 8a-8d) were micronized using a 50 mm spiral jet mill and pressurized nitrogen with the following parameters (see table 16b).
The corresponding batches were micronized using a 100 mm spiral jet mill and pressurized nitrogen with the following parameters (see table 16c).

[2] = Phase I, healthy male subjects, 7 days: plasma concentrations over time; format: in vivo, human; details: after first inhalation, all doses
Description: as §1, with “After the deep inhalative breath the subjects hold breath for 2 seconds, so that the dry powder drug condenses from the airstream onto the surface of the deeper lung areas where it is deposited close to its site of intended pharmacological action. The drug dissolutes over the day and equilibrates the lung via lining fluid.” left out

[3] = tested on: anesthetized PAH minipigs; test: PAH minipig, intratracheal application of dry powder formulations and of different hydrates (PAP, BP); format: in vivo, Göttingen Minipigs; details: 375 μg/kg i.t.
Description: Healthy Göttingen Minipigs® Ellegaard (Ellegaard, Denmark) of both sexes and having a weight of 2-6 kg were used. The animals were sedated by i.m. administration of about 25 mg/kg ketamine and about 10 mg/kg azaperone. Anaesthesia was initiated by i.v. administration of about 2 mg/kg ketamine and about 0.3 mg/kg midazolam. Maintenance of anaesthesia was by i.v. administration of about 7.5-30 mg/kg/h ketamine and about 1-4 mg/kg/h midazolam (rate of infusion 1-4 ml/kg/h) and about 150 μg/kg/h pancuronium bromide (for example Pancuronium-Actavis). After intubation, the animals were ventilated by the ventilator at a constant respiratory volume (10-12 ml/kg, 35 breaths/min; Avea®, Viasys Healthcare, USA, or Engström Carestation, GE Healthcare, Freiburg, Germany) such that an end-tidal CO2 concentration of about 5% was achieved. Ventilation was performed with room air, enriched with about 40% oxygen (normoxia). For the measurement of the haemodynamic parameters such as pulmonary arterial pressure (PAP), blood pressure (BP) and heart rate (HR), catheters were inserted into the carotid artery to measure the blood pressure, and a Swan-Ganz® catheter was introduced in a flow-directed manner via the jugular vein into the pulmonary artery. The haemodynamic signals were recorded and evaluated by means of pressure transducers (Combitransducer, B. Braun, Melsungen, Germany)/amplifiers and Ponemah® as data acquisition software.
About 0.3-0.75 μg/kg/min of 9,11-didesoxy-9α,11α-epoxymethanoprostaglandine F2α (U-44069; Sigma, cat. no. D0400, or Cayman Chemical Company, cat. no. 16440), dissolved in physiological saline, were infused to achieve an increase of the mean pulmonary arterial pressure to values of over 25 mmHg.
After characterization of the effects of comparative example 11 after nebulization of compound solutions, in a further step the effects of crystalline forms of comparative example 11, e.g. sesquihydrate, e.g. example 6e on PAP and BP after inhaled application of different dry powder lactose formulations (table 52) were studied in anesthetized PAH minipigs.
As reference pure Lactose vehicle was applied in the beginning of each experiment.

healthy male subjects = test: Phase I, healthy male subjects, 7 days: bodyplethysmography, total specific airway resistance (sRaw); format: in vivo, human
Description: as §1, with “After the deep inhalative breath the subjects hold breath for 2 seconds, so that the dry powder drug condenses from the airstream onto the surface of the deeper lung areas where it is deposited close to its site of intended pharmacological action. The drug dissolutes over the day and equilibrates the lung via lining fluid.” left out

[4] = Storage stability of pseudopolymorphic forms (XRPD); format: physicochemical
[5] = XRPD
Description: There was no sample preparation.
3 g (5S)—{[2-(4-Carboxyphenyl)ethyl][2-(2-{[3-chloro-4′-(trifluoromethyl)biphenyl-4-yl]methoxy}-phenyl)ethyl]amino}-5,6,7,8-tetrahydroquinoline-2-carboxylic acid monohydrate I, (material prepared in analogy to example 3/4) were suspended in 20 mL of methanol. The suspension was stirred at ambient conditions for eight days. The residue was filtered and the resulting solid was dryed at ambient conditions. • water content: 4.8% water • Raman: see table 13, see FIG. 17 • IR: see table 14, see FIG. 24 • XRPD: see table 12, see FIG. 10

## O=C(O)c1ccc(CCN(CCc2ccccc2OCc2ccc(-c3ccc(C(F)(F)F)cc3)cc2Cl)[C@H]2CCCc3nc(C(=O)O)ccc32)cc1 [Example 2, (5S)—{[2-(4-Carboxyphenyl)ethyl][2-(2-{[3-chloro-4′-(trifluoromethyl)biphenyl-4-yl]methoxy}phenyl)-ethyl]amino}-5,6,7,8-tetrahydroquinoline-2-carboxylic Acid as Monohydrate II]
cGMP; 480 μg inhaled once daily, 7 D 15 H 00 M
  cGMP over time (means): 8.56 ± 2.80 nmol/L
cGMP; 480 μg inhaled once daily, 8 D 00 H 00 M
  cGMP over time (means): 7.20 ± 3.23 nmol/L
cGMP; 480 μg inhaled once daily, 8 D 12 H 00 M
  cGMP over time (means): 6.20 ± 2.00 nmol/L
cGMP; 480 μg inhaled once daily, 9 D 00 H 00 M
  cGMP over time (means): 5.64 ± 2.53 nmol/L
cGMP; 480 μg inhaled once daily, −0 D 09 H 00 M
  cGMP over time (means): 5.60 ± 1.08 nmol/L
cGMP; 480 μg inhaled once daily, −1 D 02 H 00 M
  cGMP over time (means): 5.40 ± 1.41 nmol/L
cGMP; 1000 μg inhaled once daily, 5 D 00 H 00 M
  cGMP over time (means): 8.50 ± 2.13 nmol/L
cGMP; 1000 μg inhaled once daily, −0 D 20 H 00 M
  cGMP over time (means): 4.78 ± 1.37 nmol/L
cGMP; 1000 μg inhaled once daily, −0 D 22 H 00 M
  cGMP over time (means): 5.10 ± 1.46 nmol/L
cGMP; 2000 μg inhaled once daily, 2 D 00 H 00 M
  cGMP over time (means): 6.40 ± 2.09 nmol/L
cGMP; 2000 μg inhaled once daily, 3 D 00 H 00 M
  cGMP over time (means): 10.00 ± 3.51 nmol/L
cGMP; 2000 μg inhaled once daily, 8 D 00 H 00 M
  cGMP over time (means): 16.00 ± 5.77 nmol/L
cGMP; 2000 μg inhaled once daily, 9 D 12 H 00 M
  cGMP over time (means): 9.40 ± 3.10 nmol/L
cGMP; 2000 μg inhaled once daily, −0 D 18 H 00 M
  cGMP over time (means): 4.32 ± 1.33 nmol/L
[1]; example 2 batch
  XRPD after micronization: monohydrate II with partial amorphization
[1]; example 8a: VA jet mill (diameter 50 mm), 25° C.
  solid form after micronization: transformation from monohydrate II to monohydrate I
[1]; example 8b, several conditions, even low stress
  solid form after micronization: partial amorphization
[2]
  measurable plasma concentration persisted for: 48 h
[3]; micronized hydrates
  efficacy with regard to PAP reduction and systemic BP reduction: comparable efficacy
[3]; time 160, per animal
  PAP(mean): 27.8 mmHg
Healthy male subjects; 480 μg inhaled once daily, 0 D 06 H 00 M
  total specific airway resistance (means): 0.800 ± 0.187 kPa/sec
Healthy male subjects; 2000 μg inhaled once daily, 7 D 06 H 00 M
  total specific airway resistance (means): 0.730 ± 0.151 kPa/sec
[4]; example 7a: brown glass snap on closure, 25° C., 60% relative humidity
  Result (solid form after storage): monohydrate II
[4]; example 7b: polyethylene, 25° C., 60% relative humidity
  Result (solid form after storage): monohydrate I
[4]; example 7c: polyethylene, 40° C., 75% relative humidity
  Result (solid form after storage): monohydrate I
[4]; example 7d: brown glass closed with paper filter disc, 40° C., 75% relative humidity
  Result (solid form after storage): monohydrate I

## O.O.O=C(O)c1ccc(CCN(CCc2ccccc2OCc2ccc(-c3ccc(C(F)(F)F)cc3)cc2Cl)[C@H]2CCCc3nc(C(=O)O)ccc32)cc1 [Example 6f]
[5]
  solid form after drying: went amorphous
